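Interpolation was linear, between the two tested concentrations surrounding the appropriate level; five concentrations were tested over 48 hours in 96-well plates. GI50 is the concentration that inhibits growth by half.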 The source made the active and inactive calls. Cut-off read from the data, not from the text of the source: active = GI50 up to about 1.1 µM and inactive = higher.
Tests used:
Experiment in all cases: DTP human tumour cell line panel, 48 h
[1] = test system: A549
[2] = test system: T47D
[3] = test system: SK-MEL-5
[4] = test system: UO-31
[5] = test system: PC-3
[6] = test system: SN12C
[7] = test system: SR
[8] = test system: KM12
[9] = test system: BT-549
[10] = test system: M14
[11] = test system: RPMI-8226
[12] = test system: HOP-92
[13] = test system: LOX IMVI
[14] = test system: SF-295
[15] = test system: NCI-H226
[16] = test system: NCI-H460
[17] = test system: SW-620
[18] = test system: SK-OV-3
[19] = test system: UACC-62
[20] = test system: IGROV-1

Compound | GI50 [1] | GI50 [2] | GI50 [3] | GI50 [4] | GI50 [5] | GI50 [6] | GI50 [7] | GI50 [8] | GI50 [9] | GI50 [10] | GI50 [11] | GI50 [12] | GI50 [13] | GI50 [14] | GI50 [15] | GI50 [16] | GI50 [17] | GI50 [18] | GI50 [19] | GI50 [20]
CC1=NN(C(=O)CC(=O)Nc2cccc(Cl)c2)C(=O)C1/N=N\c1ccc(S(=O)(=O)c2ccc(/N=N/C3C(=O)N(C(=O)CC(=O)Nc4cccc(Cl)c4)N=C3C)cc2)cc1 (stereo not given) | > 100 µM (inactive) | > 100 µM (inactive) | 40.8 µM (inactive) | > 100 µM (inactive) | > 100 µM (inactive) | > 100 µM (inactive) | > 100 µM (inactive) | > 100 µM (inactive) | > 100 µM (inactive) | > 100 µM (inactive) | > 100 µM (inactive) | > 100 µM (inactive) | > 100 µM (inactive) | > 100 µM (inactive) | > 100 µM (inactive) | > 100 µM (inactive) | > 100 µM (inactive) | > 100 µM (inactive) | > 100 µM (inactive) | > 100 µM (inactive)
CN(/N=C/c1ccccc1O)c1ccc2ccccc2n1 | 16.3 µM (inactive) | 13.5 µM (inactive) | 32.5 µM (inactive) | 20.8 µM (inactive) | 17.5 µM (inactive) | 32.4 µM (inactive) | 19.7 µM (inactive) | 21.3 µM (inactive) | 23.6 µM (inactive) | 27.1 µM (inactive) | 35.6 µM (inactive) | 35.3 µM (inactive) | 30.8 µM (inactive) | 16.2 µM (inactive) | 78 µM (inactive) | 22.9 µM (inactive) | 42.3 µM (inactive) | 16.3 µM (inactive) | 35.2 µM (inactive) | 11.3 µM (inactive)
Cc1n[nH]c(=O)n1C1CC1 | > 100 µM (inactive) | > 100 µM (inactive) | > 100 µM (inactive) | > 100 µM (inactive) | > 100 µM (inactive) | > 100 µM (inactive) | > 100 µM (inactive) | > 100 µM (inactive) | 0.0111 µM (active) | > 100 µM (inactive) | > 100 µM (inactive) | > 100 µM (inactive) | > 100 µM (inactive) | > 100 µM (inactive) | > 100 µM (inactive) | > 100 µM (inactive) | > 100 µM (inactive) | > 100 µM (inactive) | > 100 µM (inactive) | > 100 µM (inactive)
O=C1C2=C(c3ccccc31)C(c1ccccc1)N1C(=O)CSC1=N2 (stereo not given) | 67.1 µM (inactive) | 29.6 µM (inactive) | 36.9 µM (inactive) | 34.8 µM (inactive) | 34.4 µM (inactive) | > 53.6 µM (inactive) | 26.4 µM (inactive) | > 53.6 µM (inactive) | 24.5 µM (inactive) | 49.4 µM (inactive) | 56.9 µM (inactive) | 32.6 µM (inactive) | 37.3 µM (inactive) | 41.5 µM (inactive) | 38.5 µM (inactive) | > 57.1 µM (inactive) | 50.8 µM (inactive) | > 70.6 µM (inactive) | 37.8 µM (inactive) | > 57.4 µM (inactive)
Fc1ccc(C(OCCN2CCC3CCC(C2)N3C/C=C/c2ccco2)c2ccc(F)cc2)cc1 (stereo not given) | 12.5 µM (inactive) | 5.14 µM (inactive) | 4.22 µM (inactive) | 15.1 µM (inactive) | 8.2 µM (inactive) | 11.4 µM (inactive) | 2.47 µM (inactive) | 9.1 µM (inactive) | 12.8 µM (inactive) | 5.5 µM (inactive) | 4.2 µM (inactive) | 4.62 µM (inactive) | 11.2 µM (inactive) | 13 µM (inactive) | 13.2 µM (inactive) | 7.11 µM (inactive) | 7.96 µM (inactive) | 14.6 µM (inactive) | 13.8 µM (inactive) | 6.5 µM (inactive)
CC(CCC=O)CCOCc1ccccc1 (stereo not given) | > 87.5 µM (inactive) | > 100 µM (inactive) | 37.4 µM (inactive) | > 100 µM (inactive) | > 100 µM (inactive) | > 100 µM (inactive) | > 54.5 µM (inactive) | > 57.1 µM (inactive) | > 100 µM (inactive) | > 100 µM (inactive) | 53.7 µM (inactive) | > 100 µM (inactive) | 49.8 µM (inactive) | > 100 µM (inactive) | > 100 µM (inactive) | > 100 µM (inactive) | > 80.7 µM (inactive) | > 100 µM (inactive) | > 100 µM (inactive) | > 100 µM (inactive)

Source: ChEMBL document CHEMBL1201862, “PubChem BioAssay data set” (2004)
